# Test results from patent US20210230179A1, “THIENO[2,3-B]PYRIDINE DERIVATIVES AS EPAC INHIBITORS AND THEIR PHARMACEUTICAL USES” (INSTITUT NATIONAL DE LA SANTE ET DE LA RECHERCHE MEDICALE …, priority 2018, published 2021).
# Test system: type II PKA holoenzyme
# Test: type II PKA holoenzyme activation
# Format: biochemical
# Conditions: 30 μM, presence and absence of 10 μM cAMP
compound,measurement,value
"Nc1c(C(=O)Nc2ccc(F)cc2)sc2nc(-c3cccs3)cc(-c3ccccc3)c12 [AM-001, 3-amino-N-(4-fluorophenyl)-4-phenyl-6-(thiophen-2-yl)thieno[2,3-b]pyridine-2-carboxamide]",effect on type II PKA holoenzyme activation,did not influence
